Reference: ChEMBL document CHEMBL1201862, “PubChem BioAssay data set” (2004)
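96-well plates; 48 h exposure; 5 concentrations. Endpoints by linear interpolation between flanking doses. Not reached: highest tested concentration assigned. GI50: concentration for 50% inhibition of growth.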 The source made the active and inactive calls. Cut-off read from the data, not from the text of the source: active = GI50 up to about 1.1 µM and inactive = higher.

Legend:
Assay in all cases: NCI-60 cell line screen, 48 h
NCI-H226 = test system: NCI-H226
HT-29 = test system: HT-29
MDA-N = test system: MDA-N
NCI/ADR-RES = test system: NCI/ADR-RES
DU-145 = test system: DU-145
OVCAR-4 = test system: OVCAR-4
NCI-H460 = test system: NCI-H460
SF-295 = test system: SF-295
HCT-15 = test system: HCT-15
MOLT-4 = test system: MOLT-4
IGROV-1 = test system: IGROV-1
EKVX = test system: EKVX
UACC-62 = test system: UACC-62
UACC-257 = test system: UACC-257
NCI-H23 = test system: NCI-H23
OVCAR-8 = test system: OVCAR-8
ACHN = test system: ACHN
CAKI-1 = test system: CAKI-1
SK-MEL-5 = test system: SK-MEL-5
LOX IMVI = test system: LOX IMVI
RPMI-8226 = test system: RPMI-8226
M14 = test system: M14
HCT-116 = test system: HCT-116
786-0 = test system: 786-0
NCI-H522 = test system: NCI-H522
MDA-MB-231 = test system: MDA-MB-231
SK-OV-3 = test system: SK-OV-3
K562 = test system: K562
RXF 393 = test system: RXF 393
SNB-75 = test system: SNB-75
UO-31 = test system: UO-31
KM12 = test system: KM12
SNB-19 = test system: SNB-19
MDA-MB-435 = test system: MDA-MB-435
SN12C = test system: SN12C
OVCAR-3 = test system: OVCAR-3
OVCAR-5 = test system: OVCAR-5
HOP-62 = test system: HOP-62
Hs-578T = test system: Hs-578T
TK-10 = test system: TK-10
MCF7 = test system: MCF7
HOP-92 = test system: HOP-92
COLO 205 = test system: COLO 205
SF-268 = test system: SF-268
PC-3 = test system: PC-3
CCRF-CEM = test system: CCRF-CEM
U-251 = test system: U-251
SW-620 = test system: SW-620
Malme-3M = test system: Malme-3M
SR = test system: SR
SF-539 = test system: SF-539
HL-60 = test system: HL-60
SK-MEL-28 = test system: SK-MEL-28
SK-MEL-2 = test system: SK-MEL-2
A498 = test system: A498
A549 = test system: A549
T47D = test system: T47D
HCC 2998 = test system: HCC 2998

Question: With `CN(CC(=O)O)c1ncc2c(n1)CCCC2` as the compound, how does the GI50 (NCI-H226) read?
Answer: > 100 µM (inactive)

Question: What about the GI50 (HT-29) of the same compound?
Answer: > 100 µM (inactive)

Question: And the GI50 (MDA-N)?
Answer: > 100 µM (inactive)

Question: And the GI50 (NCI/ADR-RES)?
Answer: > 100 µM (inactive)

Question: What about the GI50 (DU-145) of the same compound?
Answer: > 100 µM (inactive)

Question: What about the GI50 (OVCAR-4) of the same compound?
Answer: > 100 µM (inactive)

Question: And the GI50 (NCI-H460)?
Answer: > 100 µM (inactive)

Question: And the GI50 (SF-295)?
Answer: > 100 µM (inactive)

Question: What about the GI50 (HCT-15) of the same compound?
Answer: > 100 µM

Question: And the GI50 (MOLT-4)?
Answer: > 100 µM (inactive)

Question: What about the GI50 (IGROV-1) of the same compound?
Answer: > 100 µM (inactive)

Question: What about the GI50 (EKVX) of the same compound?
Answer: > 100 µM (inactive)

Question: What about the GI50 (UACC-62) of the same compound?
Answer: > 100 µM (inactive)

Question: What about the GI50 (UACC-257) of the same compound?
Answer: > 100 µM (inactive)

Question: And the GI50 (NCI-H23)?
Answer: > 100 µM (inactive)

Question: And the GI50 (OVCAR-8)?
Answer: > 100 µM (inactive)

Question: What about the GI50 (ACHN) of the same compound?
Answer: > 100 µM (inactive)

Question: And the GI50 (CAKI-1)?
Answer: > 100 µM (inactive)

Question: What about the GI50 (SK-MEL-5) of the same compound?
Answer: > 100 µM (inactive)

Question: And the GI50 (LOX IMVI)?
Answer: > 100 µM (inactive)

Question: What about the GI50 (RPMI-8226) of the same compound?
Answer: > 100 µM (inactive)

Question: And the GI50 (M14)?
Answer: > 100 µM (inactive)

Question: What about the GI50 (HCT-116) of the same compound?
Answer: > 100 µM (inactive)

Question: What about the GI50 (786-0) of the same compound?
Answer: > 100 µM (inactive)

Question: And the GI50 (NCI-H522)?
Answer: > 100 µM (inactive)

Question: What about the GI50 (MDA-MB-231) of the same compound?
Answer: > 100 µM (inactive)

Question: And the GI50 (SK-OV-3)?
Answer: > 100 µM (inactive)

Question: And the GI50 (K562)?
Answer: > 100 µM (inactive)

Question: What about the GI50 (RXF 393) of the same compound?
Answer: > 100 µM (inactive)

Question: What about the GI50 (SNB-75) of the same compound?
Answer: > 100 µM (inactive)

Question: What about the GI50 (UO-31) of the same compound?
Answer: > 100 µM (inactive)

Question: What about the GI50 (KM12) of the same compound?
Answer: > 100 µM (inactive)

Question: What about the GI50 (SNB-19) of the same compound?
Answer: > 100 µM (inactive)

Question: What about the GI50 (MDA-MB-435) of the same compound?
Answer: > 100 µM (inactive)

Question: What about the GI50 (SN12C) of the same compound?
Answer: > 100 µM (inactive)

Question: What about the GI50 (OVCAR-3) of the same compound?
Answer: > 100 µM (inactive)

Question: And the GI50 (OVCAR-5)?
Answer: > 100 µM (inactive)

Question: What about the GI50 (HOP-62) of the same compound?
Answer: > 100 µM (inactive)

Question: And the GI50 (Hs-578T)?
Answer: > 100 µM (inactive)

Question: What about the GI50 (TK-10) of the same compound?
Answer: > 100 µM (inactive)

Question: And the GI50 (MCF7)?
Answer: > 100 µM (inactive)

Question: What about the GI50 (HOP-92) of the same compound?
Answer: > 100 µM (inactive)

Question: What about the GI50 (COLO 205) of the same compound?
Answer: > 100 µM (inactive)

Question: And the GI50 (SF-268)?
Answer: > 100 µM (inactive)

Question: What about the GI50 (PC-3) of the same compound?
Answer: > 100 µM (inactive)

Question: What about the GI50 (CCRF-CEM) of the same compound?
Answer: > 100 µM (inactive)

Question: And the GI50 (U-251)?
Answer: > 100 µM (inactive)

Question: And the GI50 (SW-620)?
Answer: > 100 µM (inactive)

Question: And the GI50 (Malme-3M)?
Answer: > 100 µM (inactive)

Question: And the GI50 (SR)?
Answer: > 100 µM (inactive)

Question: What about the GI50 (SF-539) of the same compound?
Answer: > 100 µM (inactive)

Question: What about the GI50 (HL-60) of the same compound?
Answer: > 100 µM (inactive)

Question: And the GI50 (SK-MEL-28)?
Answer: > 100 µM (inactive)

Question: What about the GI50 (SK-MEL-2) of the same compound?
Answer: > 100 µM (inactive)

Question: What about the GI50 (A498) of the same compound?
Answer: > 100 µM (inactive)

Question: And the GI50 (A549)?
Answer: > 100 µM (inactive)

Question: `O=C1c2scc(-c3ccc(Cl)cc3)c2-n2cccc21` was tested. Which GI50 (MDA-N) did it give?
Answer: 8.65 µM (inactive)

Question: And the GI50 (DU-145)?
Answer: > 100 µM (inactive)

Question: What about the GI50 (NCI-H460) of the same compound?
Answer: > 100 µM (inactive)

Question: What about the GI50 (SF-295) of the same compound?
Answer: > 100 µM (inactive)

Question: And the GI50 (MOLT-4)?
Answer: 73.3 µM (inactive)

Question: And the GI50 (IGROV-1)?
Answer: 3.17 µM (inactive)

Question: And the GI50 (EKVX)?
Answer: 2.47 µM (inactive)

Question: And the GI50 (UACC-62)?
Answer: 7.13 µM (inactive)

Question: What about the GI50 (UACC-257) of the same compound?
Answer: > 100 µM (inactive)

Question: And the GI50 (ACHN)?
Answer: > 100 µM (inactive)

Question: And the GI50 (SK-MEL-5)?
Answer: > 100 µM (inactive)

Question: What about the GI50 (T47D) of the same compound?
Answer: > 100 µM (inactive)

Question: And the GI50 (LOX IMVI)?
Answer: > 100 µM (inactive)

Question: What about the GI50 (RPMI-8226) of the same compound?
Answer: > 100 µM (inactive)

Question: What about the GI50 (M14) of the same compound?
Answer: 50.5 µM (inactive)

Question: And the GI50 (NCI-H522)?
Answer: 2.98 µM (inactive)

Question: What about the GI50 (MDA-MB-231) of the same compound?
Answer: 14 µM (inactive)

Question: What about the GI50 (SK-OV-3) of the same compound?
Answer: > 100 µM (inactive)

Question: What about the GI50 (K562) of the same compound?
Answer: 3.93 µM (inactive)

Question: And the GI50 (RXF 393)?
Answer: > 100 µM (inactive)

Question: What about the GI50 (SNB-75) of the same compound?
Answer: 2.4 µM (inactive)

Question: And the GI50 (KM12)?
Answer: 5.25 µM (inactive)

Question: And the GI50 (MDA-MB-435)?
Answer: 8.04 µM (inactive)

Question: What about the GI50 (OVCAR-3) of the same compound?
Answer: > 100 µM (inactive)

Question: What about the GI50 (OVCAR-5) of the same compound?
Answer: > 100 µM (inactive)

Question: And the GI50 (Hs-578T)?
Answer: 1.95 µM (inactive)

Question: What about the GI50 (COLO 205) of the same compound?
Answer: > 100 µM (inactive)

Question: What about the GI50 (PC-3) of the same compound?
Answer: > 100 µM (inactive)

Question: What about the GI50 (CCRF-CEM) of the same compound?
Answer: > 100 µM (inactive)

Question: And the GI50 (SW-620)?
Answer: > 100 µM (inactive)

Question: What about the GI50 (Malme-3M) of the same compound?
Answer: > 100 µM (inactive)

Question: And the GI50 (SR)?
Answer: 2.84 µM (inactive)

Question: What about the GI50 (SK-MEL-28) of the same compound?
Answer: > 100 µM (inactive)

Question: And the GI50 (HCC 2998)?
Answer: > 100 µM (inactive)

Question: What about the GI50 (SK-MEL-2) of the same compound?
Answer: > 100 µM (inactive)

Question: What about the GI50 (A498) of the same compound?
Answer: 1.11 µM (active)

Question: What about the GI50 (A549) of the same compound?
Answer: > 100 µM (inactive)
